Like-named read-outs stand apart in the source and are kept apart here. Marks after values point to notes of the source that are not given here.
How the values were obtained:
[1] = Protocol: PK parameters were evaluated on Day 1 and Day 15.
The planned sample size was 300 patients maximum, including 54 patients in the dose escalation phase, seven patients at each level of the first stage of the expansion phase, 20 patients at each level in the second stage of the expansion phase, and in the extension phase, 100, 40, 20, and 10 patients in Cohorts A, B, C, and D, respectively. The main analysis sets in each study phase are defined in Supplementary Table 1 (Online Resource 3). Safety and efficacy data are summarized using descriptive statistics. PK parameters were calculated according to the non-compartmental method. ORR, DCR, and median PFS were calculated along with 95% CIs. The statistical software used to perform statistical analyses was SAS version 9.2 (SAS Inc., Cary, NC, USA, RRID: SCR_008567). For the PK analysis, Phoenix® WinNonlin® Ver. 6.3 and 6.4 (Certara, Princeton, NJ, USA) was used.

[2] = system: T790M-positive NSCLC patients; assay type: in vivo, human; conditions: for median PFS / Best overall response: Not evaluable / Best overall response: Partial response / Best overall response: Progression disease / Best overall response: Stable disease / Disease control rate / Objective response rate: T790M-positive
Excerpt: To assess the EGFR T790M mutation tumor status, mandatorily collected plasma from patients was processed, and isolated circulating cell-free DNA (cfDNA) was submitted for laboratory testing (Fluorescence Resonance Energy Transfer-based Preferential Formation Assay [F-PHFA] method) by central review. In some patients, collected tumor biopsies were submitted for EGFR genotyping (Therascreen® EGFR RGQ PCR kit [Qiagen, Venlo, Netherlands]).
Antitumor efficacy was based on objective tumor assessments according to the Response Evaluation Criteria in Solid Tumors criteria (version 1.1, 2009). Computed tomography scans were performed at baseline, every 6 weeks after starting administration, and at the time of discontinuation. The ORR, DCR, and PFS at each phase were assessed according to dose level and regimen. ORR was defined as the proportion of patients in which the best overall response was determined to be CR or PR and was calculated in patients with measurable lesions. DCR was defined as the proportion of patients in which the best overall response was determined to be CR, PR, or stable disease. PFS was defined as the median time from enrollment to PD or death from any cause.

[3] = BID 8 mg/day, cycle 1, day 15, n = 9
[4] = BID 12 mg/day, cycle 1, day 15, n = 4
[5] = QD 4 mg/day, cycle 1, day 15, n = 3
[6] = QD 8 mg/day, cycle 1, day 15, n = 9
[7] = QD 10 mg/day, cycle 1, day 15, n = 7
[8] = QD 12 mg/day, cycle 1, day 15, n = 2
[9] = QD 16 mg/day, cycle 1, day 15, n = 1

C=CC(=O)N[C@H]1CCc2c(-c3cnc4ccccc4c3)c3c(N)ncnc3n2C1 [TAS-121]
AUC0-12h, mean (standard deviation) [1, 3]: 1520 (520) ng•h/mL | Cmax, mean (standard deviation) [1, 3]: 290 (104) ng/mL | T1/2, mean (standard deviation) [1, 3]: 5.11 (1.48) h | Tmax, median (minimum–maximum) [1, 3]: 1.00 (0.50–1.00) h | AUC0-12h, mean (standard deviation) [1, 4]: 5860 (1460) ng•h/mL | Cmax, mean (standard deviation) [1, 4]: 772 (201) ng/mL | T1/2, mean (standard deviation) [1, 4]: 8.84 (3.31) h | Tmax, median (minimum–maximum) [1, 4]: 2.00 (1.00–3.00) h | AUC0-24h, mean (standard deviation) [1, 5]: 2670 (1110) ng•h/mL | Cmax, mean (standard deviation) [1, 5]: 304 (13) ng/mL | T1/2, mean (standard deviation) [1, 5]: 8.83 (2.88) h | Tmax, median (minimum–maximum) [1, 5]: 1.00 (1.00–1.00) h | AUC0-24h, mean (standard deviation) [1, 6]: 4860 (2520) ng•h/mL | Cmax, mean (standard deviation) [1, 6]: 569 (312) ng/mL | T1/2, mean (standard deviation) [1, 6]: 8.60 (2.49) h | Tmax, median (minimum–maximum) [1, 6]: 1.00 (0.50–2.00) h | AUC0-24h, mean (standard deviation) [1, 7]: 8040 (4190) ng•h/mL | Cmax, mean (standard deviation) [1, 7]: 900 (376) ng/mL | T1/2, mean (standard deviation) [1, 7]: 8.61 (1.73) h | Tmax, median (minimum–maximum) [1, 7]: 2.00 (0.75–4.00) h | T1/2 ([1]; QD 12 mg/day, cycle 1, day 15, based on one patient): 8.12 (NA)^b h | AUC0-24h, mean [1, 8]: 9500 (NA) ng•h/mL | Cmax, mean [1, 8]: 1180 (NA) ng/mL | Tmax, median (minimum–maximum) [1, 8]: 1.12 (1.00–1.23) h | AUC0-24h [1, 9]: 5870 (NA) ng•h/mL | Cmax [1, 9]: 825 (NA) ng/mL | T1/2 [1, 9]: 6.44 (NA) h | Tmax [1, 9]: 2.00 (NA) h | objective response rate (ORR) ([2]; T790M-positive patients with measurable lesions, n = 86, regardless of the dosage): 28% | objective response rate (ORR) ([2]; T790M-positive patients, 8 mg/day BID): 39% | median PFS ([2]; 4 mg/day QD, 23 patients/17 events): 165 days | Best overall response: Not evaluable ([2]; 4 mg/day QD, N = 15): 1 (6.7) n (%) | Best overall response: Partial response ([2]; 4 mg/day QD, N = 15): 4 (26.7) n (%) | Best overall response: Progression disease ([2]; 4 mg/day QD, N = 15): 7 (46.7) n (%) | Best overall response: Stable disease ([2]; 4 mg/day QD, N = 15): 3 (20.0) n (%) | Disease control rate ([2]; 4 mg/day QD, N = 15): 7 (46.7) n (%) | Objective response rate ([2]; 4 mg/day QD, N = 15): 4 (26.7) n (%) | median PFS ([2]; 8 mg/day BID, 36 patients/21 events): 253 days | Best overall response: Not evaluable ([2]; 8 mg/day BID, N = 33): 1 (3.0) n (%) | Best overall response: Partial response ([2]; 8 mg/day BID, N = 33): 13 (39.4) n (%) | Best overall response: Progression disease ([2]; 8 mg/day BID, N = 33): 8 (24.2) n (%) | Best overall response: Stable disease ([2]; 8 mg/day BID, N = 33): 11 (33.3) n (%) | Disease control rate ([2]; 8 mg/day BID, N = 33): 24 (72.7) n (%) | Objective response rate ([2]; 8 mg/day BID, N = 33): 13 (39.4) n (%) | median PFS ([2]; 8 mg/day QD, 33 patients/25 events): 125 days | Best overall response: Not evaluable ([2]; 8 mg/day QD, N = 28): 0 (0.0) n (%) | Best overall response: Partial response ([2]; 8 mg/day QD, N = 28): 6 (21.4) n (%) | Best overall response: Progression disease ([2]; 8 mg/day QD, N = 28): 11 (39.3) n (%) | Best overall response: Stable disease ([2]; 8 mg/day QD, N = 28): 11 (39.3) n (%) | Disease control rate ([2]; 8 mg/day QD, N = 28): 17 (60.7) n (%) | Objective response rate ([2]; 8 mg/day QD, N = 28): 6 (21.4) n (%) | Best overall response: Not evaluable ([2]; 10 mg/day QD, N = 7): 0 (0.0) n (%) | Best overall response: Partial response ([2]; 10 mg/day QD, N = 7): 1 (14.3) n (%) | Best overall response: Progression disease ([2]; 10 mg/day QD, N = 7): 3 (42.9) n (%) | Best overall response: Stable disease ([2]; 10 mg/day QD, N = 7): 3 (42.9) n (%) | Disease control rate ([2]; 10 mg/day QD, N = 7): 4 (57.1) n (%) | Objective response rate ([2]; 10 mg/day QD, N = 7): 1 (14.3) n (%) | median PFS ([2]; 10 mg/day QD, seven patients/three events): 401 days | Best overall response: Not evaluable ([2]; 12 mg/day BID, N = 3): 1 (33.3) n (%) | Best overall response: Partial response ([2]; 12 mg/day BID, N = 3): 0 (0.0) n (%) | Best overall response: Progression disease ([2]; 12 mg/day BID, N = 3): 1 (33.3) n (%) | Best overall response: Stable disease ([2]; 12 mg/day BID, N = 3): 1 (33.3) n (%) | Disease control rate ([2]; 12 mg/day BID, N = 3): 1 (33.3) n (%) | Objective response rate ([2]; 12 mg/day BID, N = 3): 0 (0.0) n (%) | Best overall response: Not evaluable ([2]; 12 mg/day QD, N = 1): 0 (0.0) n (%) | Best overall response: Partial response ([2]; 12 mg/day QD, N = 1): 0 (0.0) n (%) | Best overall response: Progression disease ([2]; 12 mg/day QD, N = 1): 1 (100.0) n (%) | Best overall response: Stable disease ([2]; 12 mg/day QD, N = 1): 0 (0.0) n (%) | Disease control rate ([2]; 12 mg/day QD, N = 1): 0 (0.0) n (%) | Objective response rate ([2]; 12 mg/day QD, N = 1): 0 (0.0) n (%) | Best overall response: Not evaluable ([2]; Total, N = 87): 3 (3.4) n (%) | Best overall response: Partial response ([2]; Total, N = 87): 24 (27.6) n (%) | Best overall response: Progression disease ([2]; Total, N = 87): 31 (35.6) n (%) | Best overall response: Stable disease ([2]; Total, N = 87): 29 (33.3) n (%) | Disease control rate ([2]; Total, N = 87): 53 (60.9) n (%) | Objective response rate ([2]; Total, N = 87): 24 (27.6) n (%)

Source: PMC6856039 (Investigational New Drugs, 2019)
